The values below come from patent US20250250230A1, “HETEROCYCLIC COMPOUND” (TAKEDA PHARMACEUTICAL COMPANY LIMITED, priority 2022, published 2025).

SMILES strings stand for the structures.

The target of this test is T1, human orexin type 2 receptor (Homo sapiens, UniProt O43614).
T1 construct: expressed in transfected cells
T1 sequence (O43614 1-444): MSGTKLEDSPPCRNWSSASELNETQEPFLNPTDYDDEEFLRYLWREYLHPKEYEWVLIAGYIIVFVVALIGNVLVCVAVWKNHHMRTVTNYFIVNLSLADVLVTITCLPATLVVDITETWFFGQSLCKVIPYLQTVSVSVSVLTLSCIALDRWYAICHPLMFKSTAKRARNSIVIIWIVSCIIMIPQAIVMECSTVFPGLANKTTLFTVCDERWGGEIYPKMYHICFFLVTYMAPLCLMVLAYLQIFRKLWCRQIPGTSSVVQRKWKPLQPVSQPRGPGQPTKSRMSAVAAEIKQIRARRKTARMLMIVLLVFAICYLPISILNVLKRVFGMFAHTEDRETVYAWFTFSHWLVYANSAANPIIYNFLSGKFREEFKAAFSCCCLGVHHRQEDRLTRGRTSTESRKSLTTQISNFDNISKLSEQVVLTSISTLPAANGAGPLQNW
Briefly: Measurement of orexin type 2 receptor agonist activity (calcium fluorescence, Fluo-4 AM, FDSS). In kind it is cell-based. The conditions noted are these: test compound 3 μM; CHO cells expressing human OX2 receptor; DMSO = 0%, orexin A (human) = 100%. The procedure, abridged:
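Agonist response scaled between vehicle (0%) and human orexin A at 10 nM final (100%), from 2-min kinetic Fluo-4 fluorescence reads. Stable hOX2R CHO-K1 clone, dye-loaded in HBSS/20 mM HEPES/0.1% BSA with 1.25 mM probenecid before compound addition.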
`CS(=O)(=O)NC1COCCN(C(=O)C2CC2c2ccccc2-c2c(F)cccc2F)C1` (racemic) [Example 219, a mixture of rac-N-{(6R)-1-[(1R,2R)-2-(2′,6′-difluoro[1,1′-biphenyl]-2-yl)cyclopropane-1-carbonyl]-1,4-oxazepan-6-yl}methanesulfonamide and rac-N-{(6S)-4-[(1R,2R)-2-(2′,6′-difluoro[1,1′-biphenyl]-2-yl)cyclopropane-1-carbonyl]-1,4-oxazepan-6-yl}methanesulfonamide]: the “OX2R agonist activity (3 μM, %)” value was determined as 96%.
In the case of `CS(=O)(=O)NC1CCCN(C(=O)C2CC2c2sccc2-c2ccccc2F)CC1` (racemic) [Example 220, a mixture of rac-N-[(4R)-1-{(1R,2R)-2-[3-(2-fluorophenyl)thiophen-2-yl]cyclopropane-1-carbonyl}azepan-4-yl]methanesulfonamide and rac-N-[(4S)-1-{(1R,2R)-2-[3-(2-fluorophenyl)thiophen-2-yl]cyclopropane-1-carbonyl}azepan-4-yl]methanesulfonamide], the “OX2R agonist activity (3 μM, %)” value worked out at 79%.
For `CS(=O)(=O)NC1CCCN(C(=O)C2CC2c2sccc2-c2c(F)cccc2F)CC1` (racemic) [Example 221, a mixture of rac-N-[(4R)-1-{(1R,2R)-2-[3-(2,6-difluorophenyl)thiophen-2-yl]cyclopropane-1-carbonyl}azepan-4-yl]methanesulfonamide and rac-N-[(4S)-1-{(1R,2R)-2-[3-(2,6-difluorophenyl)thiophen-2-yl]cyclopropane-1-carbonyl}azepan-4-yl]methanesulfonamide], the “OX2R agonist activity (3 μM, %)” value is 107%.
For `CS(=O)(=O)NC1CCCN(C(=O)C2CC2c2sccc2-c2c(F)cccc2F)C1` (racemic) [Example 223, a mixture of rac-N-[(3R)-1-{(1R,2R)-2-[3-(2,6-difluorophenyl)thiophen-2-yl]cyclopropane-1-carbonyl}piperidin-3-yl]methanesulfonamide and rac-N-[(3S)-1-{(1R,2R)-2-[3-(2,6-difluorophenyl)thiophen-2-yl]cyclopropane-1-carbonyl}piperidin-3-yl]methanesulfonamide], the “OX2R agonist activity (3 μM, %)” value came out at 81%.
As for `CS(=O)(=O)NC1CCN(C(=O)C2CC2c2ccc(C(F)F)cc2-c2c(F)cccc2F)C1` (racemic) [Example 228, a mixture of rac-N-[(3R)-1-{(1R,2R)-2-[5-(difluoromethyl)-2′,6′-difluoro[1,1′-biphenyl]-2-yl]cyclopropane-1-carbonyl}pyrrolidin-3-yl]methanesulfonamide and rac-N-[(3S)-1-{(1R,2R)-2-[5-(difluoromethyl)-2′,6′-difluoro[1,1′-biphenyl]-2-yl]cyclopropane-1-carbony}pyrrolidin-3-yl]methanesulfonamide], the figure is 90%.
For the molecule `CS(=O)(=O)NC1CCCN(C(=O)C2CC2c2ccc(C(F)F)cc2-c2c(F)cccc2F)CC1` (racemic) [Example 229, a mixture of rac-N-[(4R)-1-{(1R,2R)-2-[5-(difluoromethyl)-2′,6′-difluoro[1,1′-biphenyl]-2-yl]cyclopropane-1-carbonyl}azepan-4-yl]methanesulfonamide and rac-N-[(4S)-1-{(1R,2R)-2-[5-(difluoromethyl)-2′,6′-difluoro[1,1′-biphenyl]-2-yl]cyclopropane-1-carbonyl}azepan-4-yl]methanesulfonamide], the “OX2R agonist activity (3 μM, %)” value is reported as 64%.
As to `CS(=O)(=O)NC1CCCN(C(=O)C2CC2c2ccc(C(F)F)cc2-c2c(F)cccc2F)C1` (racemic) [Example 230, a mixture of rac-N-[(3R)-1-{(1R,2R)-2-[5-(difluoromethyl)-2′,6′-difluoro[1,1′-biphenyl]-2-yl]cyclopropane-1-carbonyl}piperidin-3-yl]methanesulfonamide and rac-N-[(3S)-1-{(1R,2R)-2-[5-(difluoromethyl)-2′,6′-difluoro[1,1′-biphenyl]-2-yl]cyclopropane-1-carbonyl}piperidin-3-yl]methanesulfonamide], the “OX2R agonist activity (3 μM, %)” value is 91%.
As for `CS(=O)(=O)NC1CCCCN(C(=O)C2CC2c2sccc2-c2c(F)cccc2F)C1` (racemic) [Example 233, a mixture of rac-N-[(3R)-1-{(1R,2R)-2-[3-(2,6-difluorophenyl)thiophen-2-yl]cyclopropane-1-carbonyl}azepan-3-yl]methanesulfonamide and rac-N-[(3S)-1-{(1R,2R)-2-[3-(2,6-difluorophenyl)thiophen-2-yl]cyclopropane-1-carbonyl}azepan-3-yl]methanesulfonamide], the figure is 80%.
Consider `CS(=O)(=O)NC1CCN(C(=O)C2CC2c2sccc2-c2c(F)cccc2F)C1` (racemic) [Example 235, a mixture of rac-N-[(3R)-1-{(1R,2R)-2-[3-(2,6-difluorophenyl)thiophen-2-yl]cyclopropane-1-carbonyl}pyrrolidin-3-yl]methanesulfonamide and rac-N-[(3S)-1-{(1R,2R)-2-[3-(2,6-difluorophenyl)thiophen-2-yl]cyclopropane-1-carbonyl}pyrrolidin-3-yl]methanesulfonamide], for which the “OX2R agonist activity (3 μM, %)” value came to 89%.
As for `CCS(=O)(=O)NC12CC1CN(C(=O)C1CC1c1ccccc1-c1c(F)cccc1F)C2` (racemic) [Example 237, a mixture of rac-N-{(1S,5R)-3-[(1R,2R)-2-(2′,6′-difluoro[1,1′-biphenyl]-2-yl)cyclopropane-1-carbonyl]-3-azabicyclo[3.1.0]hexan-1-yl}ethanesulfonamide and rac-N-{(1R,5S)-3-[(1R,2R)-2-(2′,6′-difluoro[1,1′-biphenyl]-2-yl)cyclopropane-1-carbonyl]-3-azabicyclo[3.1.0]hexan-1-yl}ethanesulfonamide], the figure is 99%; as for `Cc1cc(-c2c(F)cccc2F)c(C2CC2C(=O)N2CCCC(NS(C)(=O)=O)CC2)cn1` (racemic) [Example 266, a mixture of rac-N-[(4R)-1-{(1R,2R)-2-[4-(2,6-difluorophenyl)-6-methylpyridin-3-yl]cyclopropane-1-carbonyl}azepan-4-yl]methanesulfonamide and rac-N-[(4S)-1-{(1R,2R)-2-[4-(2,6-difluorophenyl)-6-methylpyridin-3-yl]cyclopropane-1-carbonyl}azepan-4-yl]methanesulfonamide], 87%; as for `Cc1cc(-c2c(F)cccc2F)c(C2CC2C(=O)N2CCCC(NS(C)(=O)=O)C2)cn1` (racemic) [Example 267, a mixture of rac-N-[(3R)-1-{(1R,2R)-2-[4-(2,6-difluorophenyl)-6-methylpyridin-3-yl]cyclopropane-1-carbonyl}piperidin-3-yl]methanesulfonamide and rac-N-[(3S)-1-{(1R,2R)-2-[4-(2,6-difluorophenyl)-6-methylpyridin-3-yl]cyclopropane-1-carbonyl}piperidin-3-yl]methanesulfonamide], 87%.
Regarding `Cc1cc(-c2c(F)cccc2F)c(C2CC2C(=O)N2CC[C@H](NS(C)(=O)=O)C2)cn1` (mixture of isomers) [Example 268, a mixture of rac-N-[(3R)-1-{(1R,2R)-2-[4-(2,6-difluorophenyl)-6-methylpyridin-3-yl]cyclopropane-1-carbonyl}pyrrolidin-3-yl]methanesulfonamide and rac-N-[(3S)-1-{(1R,2R)-2-[4-(2,6-difluorophenyl)-6-methylpyridin-3-yl]cyclopropane-1-carbonyl}pyrrolidin-3-yl]methanesulfonamide], the “OX2R agonist activity (3 μM, %)” value came out at 80%.
In the case of `CS(=O)(=O)NCC1CN(C(=O)C2CC2c2ccccc2-c2c(F)cccc2F)CCC1(F)F` (racemic) [Example 275, a mixture of rac-N-({(3R)-1-[(1R,2R)-2-(2′,6′-difluoro[1,1′-biphenyl]-2-yl)cyclopropane-1-carbonyl]-4,4-difluoropiperidin-3-yl}methyl)methanesulfonamide and rac-N-({(3S)-1-[(1R,2R)-2-(2′,6′-difluoro[1,1′-biphenyl]-2-yl)cyclopropane-1-carbonyl]-4,4-difluoropiperidin-3-yl}methyl)methanesulfonamide], the “OX2R agonist activity (3 μM, %)” value amounted to 57%.
Regarding `CS(=O)(=O)NCC1CN(C(=O)C2CC2c2ccccc2-c2c(F)cccc2F)CC1(F)F` (racemic) [Example 285, a mixture of rac-N-({(3R)-1-[(1R,2R)-2-(2′,6′-difluoro[1,1′-biphenyl]-2-yl)cyclopropane-1-carbonyl]-4,4-difluoropyrrolidin-3-yl}methyl)methanesulfonamide and rac-N-({(3S)-1-[(1R,2R)-2-(2′,6′-difluoro[1,1′-biphenyl]-2-yl)cyclopropane-1-carbonyl]-4,4-difluoropyrrolidin-3-yl}methyl)methanesulfonamide], the “OX2R agonist activity (3 μM, %)” value came out at 63%.
Turning to `CS(=O)(=O)N[C@H]1CCN(C(=O)C2(C#N)CC2c2ccccc2-c2c(F)cccc2F)C1` (mixture of isomers) [Example 316, a mixture of rac-N-{(3S)-1-[(1R,2S)-1-cyano-2-(2′,6′-difluoro[1,1′-biphenyl]-2-yl)cyclopropane-1-carbonyl]pyrrolidin-3-yl}methanesulfonamide and N-{(3S)-1-[(1S,2R)-1-cyano-2-(2′,6′-difluoro[1,1′-biphenyl]-2-yl)cyclopropane-1-carbonyl]pyrrolidin-3-yl}methanesulfonamide], the “OX2R agonist activity (3 μM, %)” value came to 88%.
